# Source: US20060223879A1, “Non-steroidal farnesoid x receptor modulators” (priority 2002, published 2006)
# Where “and” joins values, the source holds several entries; their conditions need not be identical. Equal entries are not always repeated. Entries after “also recorded” stand apart in the source; their conditions may differ. Where two headings read alike, the source gives them in different places.
# Biological target: T1, FXR (Homo sapiens, UniProt Q96RI1)
# T1 construct: using a full length FXR on a natural response element; expressed in transfected cells
# T1 sequence (Q96RI1 1-486): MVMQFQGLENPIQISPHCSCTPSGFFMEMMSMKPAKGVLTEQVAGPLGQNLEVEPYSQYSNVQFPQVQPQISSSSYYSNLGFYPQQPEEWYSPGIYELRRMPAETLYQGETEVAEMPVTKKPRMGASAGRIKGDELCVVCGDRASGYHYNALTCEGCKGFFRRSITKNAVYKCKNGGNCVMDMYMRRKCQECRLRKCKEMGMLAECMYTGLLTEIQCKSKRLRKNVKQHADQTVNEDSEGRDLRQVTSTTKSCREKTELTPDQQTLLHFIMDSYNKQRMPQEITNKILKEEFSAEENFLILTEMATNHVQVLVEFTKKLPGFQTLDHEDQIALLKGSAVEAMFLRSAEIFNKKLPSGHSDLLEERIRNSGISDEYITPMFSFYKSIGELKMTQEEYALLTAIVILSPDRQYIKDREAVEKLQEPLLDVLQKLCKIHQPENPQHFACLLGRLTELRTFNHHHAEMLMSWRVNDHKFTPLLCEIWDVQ
# Experiment: cell-based transcription assay, FXR responsive promoter linked to a luciferase reporter
# Set-up: RE: scale not given here
# Conditions: for RE: RE not defined in the source
# Procedure, shortened: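 Cells co-transfected with full-length FXR and a luciferase reporter carrying a natural hormone response element on a minimal promoter.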
# [1] = Tables 1-15, FXR activation, cell-based reporter assay, read-out: EC50
# [2] = FXR activation, cell-based reporter assay, read-out: EC50
# [3] = library screening hits and leads, read-out: activity (EC50)
EC50 [1],RE (Tables 1-15),FXR activation (in words) (cell-based reporter assay),EC50 [2],EC50 [3],Compound
> 1000 nM,0.16,–,–,–,COC(=O)C=Cc1cccc(N(Cc2ccc(C=CC(=O)OC(C)(C)C)cc2OC(C)=O)C(=O)C2CCCCC2)c1 [Compound 164]
4020 nM,0.21,–,–,–,COC(=O)/C=C/c1cccc(N(Cc2ccc(/C=C/c3c(F)cccc3F)cc2)C(=O)NC(C)C)c1 [Compound 191]
–,–,inactive,–,–,COC(=O)/C=C/c1cccc(N(Cc2ccc3c(c2OC)OC(C)(C)C=C3)C(=S)NCc2ccccc2)c1 [Compound 84]
–,–,–,–,5000 to 10000 nM,COc1c(CN(Cc2ccccc2)C(=O)C2CC2)ccc2c1OC(C)(C)C=C2 [Compound 23]
–,–,–,–,5000 to 10000 nM,COc1c(CN(C(=O)CC(C)C)C(C)C)ccc2c1OC(C)(C)C=C2 [Compound 21]
262 nM,1.02,–,–,–,COC(=O)/C=C/c1cccc(N(Cc2ccc(-c3ccc(C(C)(C)C)cc3)cc2)C(=O)NC(C)C)c1 [Compound 264]
8180 nM,0.23,–,–,–,COC(=O)/C=C/c1cccc(N(Cc2ccc(-c3ccc(F)c(F)c3)cc2)C(=O)NC(C)C)c1 [Compound 215]
247 nM,0.59,–,–,–,COC(=O)/C=C/c1cccc(N(Cc2ccc(-c3cccc(OC(F)(F)F)c3)cc2)C(=O)C(C)C)c1 [Compound 254]
212 nM,1.96,–,127 to 250 nM and 205 to 236 nM,–,COC(=O)/C=C/c1cccc(N(Cc2ccc(/C=C/C(=O)OC(C)(C)C)cc2)C(=O)NC(C)C)c1 [Compound 145]
–,–,inactive,–,–,COC(=O)/C=C/c1cccc(N(Cc2ccccc2)Cc2ccc3c(c2OC)OC(C)(C)C=C3)c1 [Compound 78]
–,1.19,excellent activity,–,–,COC(=O)/C=C/c1cccc(N(Cc2ccc(/C=C/c3ccc(F)cc3)cc2)C(=O)C(C)C)c1 [Compound 205]
–,–,–,–,5000 to 10000 nM,COc1cc(CN(Cc2ccccc2)C(=O)NC2CCCC2)cc2c1OC(C)(C)C=C2 [Compound 18]

# More lines, now with the values behind:
Compound,EC50 [1],RE (Tables 1-15),FXR activation (in words) (cell-based reporter assay),EC50 [2],EC50 [3]
COC(=O)/C=C/c1cccc(N(Cc2ccccc2)C(=O)C2CCCCC2)c1 [Compound 110],> 1000 nM,0.09,inactive,–,–
COC(=O)/C=C/c1cccc(N(Cc2ccc(/C=C/C(=O)OC(C)(C)C)cc2)C(=O)C2CCCC2)c1 [Compound 142],162 nM,2.15,excellent activity,127 to 250 nM,–
COCC=Cc1ccc(CN(C(=O)C2CCCCC2)c2cccc(C=CC(=O)OC)c2)cc1 [Compound 156],–,1.63,–,233 nM,–
COC(=O)/C=C/c1cccc(N(Cc2ccc(-c3ccccc3OC)cc2)C(=O)C2CCCCC2)c1 [Compound 218],399 nM,0.40,–,–,–
COC(=O)/C=C/c1cccc(N(Cc2ccc(/C=C/C(=O)OC(C)(C)C)cc2)C(=O)NCc2ccccc2)c1 [Compound 146],> 1000 nM,0.27,only marginal efficacy,–,–
COC(=O)C=Cc1cccc(N(Cc2ccc(C=Cc3ccc(F)cc3)cc2)C(=O)C2CCCCC2)c1 [Compound 204],185 nM,0.53,excellent activity; also recorded: among the most active,–,–
COC(=O)/C=C/c1cccc(N(Cc2ccc(-c3ccc(SC)cc3)cc2)C(=O)C2CCCCC2)c1 [Compound 125],89 nM,1.74,excellent activity,69 nM,–
COC(=O)/C=C/c1cccc(N(C(=O)C2CCCCC2)c2ccc3ccccc3c2)c1 [Compound 111],–,0.41,–,680 nM,–
COC(=O)/C=C/c1cccc(N(Cc2ccc(-c3cc(Cl)ccc3OC)cc2)C(=O)C2CCCCC2)c1 [Compound 241],233 nM,1.16,–,–,–
CCOC(=O)C=Cc1cccc(N(Cc2ccc(C=CC(=O)OC(C)(C)C)cc2)C(=O)C2CCCCC2)c1 [Compound 133],–,–,marked decline in potency,–,–
